The source made the active and inactive calls. The calls are words filed in the database; no cut-off is given here.

Holding throughout (assay type): cell-based
In test [1] the target is T1, Equilibrative nucleoside transporter 1 (Mus musculus) (UniProt Q9JIM1).
T1 sequence (whole entry): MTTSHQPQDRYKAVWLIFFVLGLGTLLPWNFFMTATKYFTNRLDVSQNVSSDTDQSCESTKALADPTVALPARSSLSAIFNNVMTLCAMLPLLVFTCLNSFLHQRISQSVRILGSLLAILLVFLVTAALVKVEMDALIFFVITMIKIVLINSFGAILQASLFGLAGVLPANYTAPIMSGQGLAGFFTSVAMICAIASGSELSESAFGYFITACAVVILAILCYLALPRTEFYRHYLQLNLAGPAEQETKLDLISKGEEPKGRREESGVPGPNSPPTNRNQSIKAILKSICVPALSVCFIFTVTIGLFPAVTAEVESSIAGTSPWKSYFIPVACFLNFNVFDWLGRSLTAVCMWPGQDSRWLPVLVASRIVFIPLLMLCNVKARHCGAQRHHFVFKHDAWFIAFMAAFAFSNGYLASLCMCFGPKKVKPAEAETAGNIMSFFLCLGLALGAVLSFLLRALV
Kind of test: Transport through ENT1 in mouse hepatocytes by oil filtration assay in presence of sodium ions in Kreb-henseleit buffer. The following applies: Hepatocyte.

Test [2] deals with T2, Equilibrative nucleoside transporter 1 (Rattus norvegicus) (UniProt O54698).
T2 sequence (whole entry): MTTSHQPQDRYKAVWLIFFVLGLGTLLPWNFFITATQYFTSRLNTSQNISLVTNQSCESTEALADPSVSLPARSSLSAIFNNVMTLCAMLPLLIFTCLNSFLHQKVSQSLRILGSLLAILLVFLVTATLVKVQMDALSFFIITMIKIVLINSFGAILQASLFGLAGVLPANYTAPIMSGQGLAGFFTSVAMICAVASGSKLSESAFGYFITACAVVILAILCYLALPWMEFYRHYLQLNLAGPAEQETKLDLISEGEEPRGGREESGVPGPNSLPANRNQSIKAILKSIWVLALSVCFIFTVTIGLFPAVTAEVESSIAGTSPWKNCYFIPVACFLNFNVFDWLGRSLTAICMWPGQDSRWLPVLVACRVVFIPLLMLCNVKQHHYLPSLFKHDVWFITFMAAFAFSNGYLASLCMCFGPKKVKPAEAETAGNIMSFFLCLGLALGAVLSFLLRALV
Kind of test: Transport through ENT1 in rat hepatocytes by oil filtration assay in presence of sodium ions in Kreb-henseleit buffer. The following applies: Hepatocyte.

The target of test [3] is T3, Sodium/nucleoside cotransporter 2 (Rattus norvegicus) (UniProt Q62773).
T3 sequence (whole entry): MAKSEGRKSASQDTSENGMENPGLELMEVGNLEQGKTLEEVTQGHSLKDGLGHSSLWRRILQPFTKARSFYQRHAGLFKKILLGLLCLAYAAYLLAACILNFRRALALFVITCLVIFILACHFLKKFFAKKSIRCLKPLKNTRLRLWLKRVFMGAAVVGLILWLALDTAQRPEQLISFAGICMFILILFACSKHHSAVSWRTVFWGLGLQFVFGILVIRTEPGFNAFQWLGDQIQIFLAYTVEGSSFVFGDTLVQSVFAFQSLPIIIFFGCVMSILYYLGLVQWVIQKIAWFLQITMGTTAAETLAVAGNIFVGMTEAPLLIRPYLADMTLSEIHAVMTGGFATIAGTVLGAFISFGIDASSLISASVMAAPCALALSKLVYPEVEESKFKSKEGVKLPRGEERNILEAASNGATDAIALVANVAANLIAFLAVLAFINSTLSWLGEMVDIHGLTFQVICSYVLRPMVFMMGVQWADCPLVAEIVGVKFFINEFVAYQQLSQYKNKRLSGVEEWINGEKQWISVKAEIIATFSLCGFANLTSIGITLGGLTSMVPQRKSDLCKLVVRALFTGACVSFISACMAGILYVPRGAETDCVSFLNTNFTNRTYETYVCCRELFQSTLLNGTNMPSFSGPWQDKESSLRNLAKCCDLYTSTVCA
Kind of test: Transport through CNT2 in rat hepatocytes by oil filtration assay in presence of sodium ions in Kreb-henseleit buffer. The following applies: Hepatocyte.

Test [4] relates to Hepatocyte. Kind of test: Transport through CNT3 in rat hepatocytes by oil filtration assay in presence of sodium ions in Kreb-henseleit buffer.
Test [5] deals with Hepatocyte. The test can be described thus: Transport through CNT3 in rat hepatocytes by oil filtration assay.
For test [6], the target named is T3, Sodium/nucleoside cotransporter 2 (Rattus norvegicus). Kind of test: Transport through CNT2 in rat hepatocytes by oil filtration assay in presence of sodium ions in Kreb-henseleit buffer containing 100 uM NBMPR and 1 mM inosine. The settings on record: Hepatocyte.
In test [7] the target is T4, Equilibrative nucleoside transporter 2 (Rattus norvegicus) (UniProt O54699).
T4 sequence (whole entry): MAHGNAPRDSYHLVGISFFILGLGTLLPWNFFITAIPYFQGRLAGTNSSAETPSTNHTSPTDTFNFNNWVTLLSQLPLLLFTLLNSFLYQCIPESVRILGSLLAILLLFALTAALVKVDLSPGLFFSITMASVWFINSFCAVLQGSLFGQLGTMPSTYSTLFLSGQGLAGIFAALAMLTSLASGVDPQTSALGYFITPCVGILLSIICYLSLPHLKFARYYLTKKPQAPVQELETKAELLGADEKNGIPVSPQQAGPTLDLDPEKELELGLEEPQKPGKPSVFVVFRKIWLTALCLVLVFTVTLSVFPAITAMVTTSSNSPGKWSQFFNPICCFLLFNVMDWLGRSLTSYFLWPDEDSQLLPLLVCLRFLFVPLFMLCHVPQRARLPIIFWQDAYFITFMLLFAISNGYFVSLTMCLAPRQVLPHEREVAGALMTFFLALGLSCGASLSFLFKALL
Kind of test: Transport through ENT2 in rat hepatocytes by oil filtration assay in presence of sodium ions in Kreb-henseleit buffer containing 100 uM NBMPR and 1 mM uridine. The following applies: Hepatocyte.

Test [8] addresses T3, Sodium/nucleoside cotransporter 2 (Rattus norvegicus). The test can be described thus: Transport through CNT2 in rat hepatocytes by oil filtration assay in presence of sodium ions in Kreb-henseleit buffer containing 100 uM NBMPR and 1 mM uridine. The following applies: Hepatocyte.
Test [9] deals with T2, Equilibrative nucleoside transporter 1 (Rattus norvegicus). The test can be described thus: Transport through ENT1 in rat hepatocytes by oil filtration assay in presence 100 nM of transporter inhibitor NBMRP. The settings on record: Hepatocyte.
Test [10] has the same target. The test can be described thus: Transport through ENT1 in rat hepatocytes by oil filtration assay in presence 100 uM of transporter inhibitor NBMRP. The following applies: Hepatocyte.

Consider `NC(=O)c1ncn([C@@H]2O[C@H](CO)[C@@H](O)[C@H]2O)n1`, for which the result in [1], in test [2], in test [6], in test [7], in test [8] and in [9] was inactive. In test [10], the result was inactive. In addition, the outcome (in test [3]; in the test on Hepatocyte [4]; in the test with Hepatocyte [5]) was Active.
In the case of `Nc1ncnc2c1ncn2[C@@H]1O[C@H](CO)[C@@H](O)[C@H]1O`, the outcome (in [1]; in [2]; with Hepatocyte [5]; in [6]; in [7]; in test [8]) was inactive. The outcome in test [9] and in test [10] was inactive. In addition, the outcome (in test [3]; in the test with Hepatocyte [4]) was Active.

The values above are taken from ChEMBL document CHEMBL1275601, “Striking species difference in the contribution of concentrative nucleoside transporter 2 to nucleoside uptake between mouse and rat hepatocytes” (Antimicrob Agents Chemother, 2010).
